In ChEMBL document CHEMBL3808316, “Design, synthesis and biological evaluation of novel tetrahydroisoquinoline quaternary derivatives as peripheral κ-opioid receptor agonists” (Bioorg Med Chem, 2016):
pKi: −log10 of the molar value.

What was measured:
[1] = target: Mu-type opioid receptor (Rattus norvegicus) (UniProt P33535); experiment: Displacement of [3H]diprenorphine from rat mu opioid receptor expressed in CHO cell membranes at 10^-6 M after 30 mins by liquid scintillation counting analysis
Mu-type opioid receptor (Rattus norvegicus), sequence (P33535 whole entry): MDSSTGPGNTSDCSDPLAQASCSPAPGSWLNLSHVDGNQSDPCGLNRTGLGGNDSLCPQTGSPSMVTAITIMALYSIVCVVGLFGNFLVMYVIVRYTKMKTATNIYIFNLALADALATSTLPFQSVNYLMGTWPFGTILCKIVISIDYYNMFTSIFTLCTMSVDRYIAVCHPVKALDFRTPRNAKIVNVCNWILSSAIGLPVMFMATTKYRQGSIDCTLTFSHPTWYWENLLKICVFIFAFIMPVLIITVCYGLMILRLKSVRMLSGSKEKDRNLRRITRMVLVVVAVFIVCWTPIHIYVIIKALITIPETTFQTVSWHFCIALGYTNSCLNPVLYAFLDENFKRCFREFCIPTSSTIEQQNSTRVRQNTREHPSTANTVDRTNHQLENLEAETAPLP

[2] = target: Mu-type opioid receptor (Rattus norvegicus) (UniProt P33535); experiment: Displacement of [3H]diprenorphine from rat mu opioid receptor expressed in CHO cell membranes at 10^-5 M after 30 mins by liquid scintillation counting analysis
[3] = target: T1, Kappa-type opioid receptor (Homo sapiens, UniProt P41145); experiment: Displacement of [3H]diprenorphine from human kappa opioid receptor expressed in CHO cell membranes at 10^-5 M after 30 mins by liquid scintillation counting analysis
T1 sequence (P41145 whole entry): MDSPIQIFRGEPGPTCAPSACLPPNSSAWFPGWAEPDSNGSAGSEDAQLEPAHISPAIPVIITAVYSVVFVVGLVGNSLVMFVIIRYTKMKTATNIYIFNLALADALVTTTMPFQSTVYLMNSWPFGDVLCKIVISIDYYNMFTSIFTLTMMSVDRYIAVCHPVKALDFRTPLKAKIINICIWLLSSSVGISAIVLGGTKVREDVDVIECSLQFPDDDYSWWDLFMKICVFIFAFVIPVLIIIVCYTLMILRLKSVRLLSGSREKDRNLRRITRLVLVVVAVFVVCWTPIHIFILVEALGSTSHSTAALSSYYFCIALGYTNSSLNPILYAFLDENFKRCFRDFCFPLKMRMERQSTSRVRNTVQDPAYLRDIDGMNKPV

[4] = target: T1, Kappa-type opioid receptor; experiment: Displacement of [3H]diprenorphine from human kappa opioid receptor expressed in CHO cell membranes at 10^-6 M after 30 mins by liquid scintillation counting analysis
[5] = target: T1, Kappa-type opioid receptor; experiment: Displacement of [3H]diprenorphine from human kappa opioid receptor expressed in CHO cell membranes after 30 mins by liquid scintillation counting analysis
Mus musculus [6] = experiment: Sedative activity in sc dosed Kunming mouse assessed as center square duration time at 100 ug/kg after 45 mins by open field test (reference value: 13.2 +/- 3.1 secs); format: ADME, organism-based; conditions: in vivo, 0.1 mg/kg, 0.75 h
Mus musculus [7] = experiment: Sedative activity in sc dosed Kunming mouse assessed as center square duration time at 200 ug/kg after 45 mins by open field test (reference value: 13.2 +/- 3.1 secs); format: ADME, organism-based; conditions: in vivo, 0.2 mg/kg, 0.75 h
Mus musculus [8] = experiment: Potency index, ratio of antinociceptive ED50 for U50488H to antinociceptive ED50 for test compound in ip dosed mouse after 20 mins; format: functional
Mus musculus [9] = experiment: Sedative activity in sc dosed Kunming mouse assessed as crossing number at 50 ug/kg after 45 mins by open field test (reference value: 155 +/- 34); format: ADME, organism-based; conditions: in vivo, 0.05 mg/kg, 0.75 h
Mus musculus [10] = experiment: Sedative activity in sc dosed Kunming mouse assessed as center square duration distance at 200 ug/kg after 45 mins by open field test (reference value: 1.77 +/- 0.81 m); format: ADME, organism-based; conditions: in vivo, 0.2 mg/kg, 0.75 h
Mus musculus [11] = experiment: Sedative activity in sc dosed Kunming mouse assessed as center square duration distance at 50 ug/kg after 45 mins by open field test (reference value: 1.77 +/- 0.81 m); format: ADME, organism-based; conditions: in vivo, 0.05 mg/kg, 0.75 h
Mus musculus [12] = experiment: Sedative activity in sc dosed Kunming mouse assessed as center square duration distance at 100 ug/kg after 45 mins by open field test (reference value: 1.77 +/- 0.81 m); format: ADME, organism-based; conditions: in vivo, 0.1 mg/kg, 0.75 h
Mus musculus [13] = experiment: Sedative activity in sc dosed Kunming mouse assessed as crossing number at 200 ug/kg after 45 mins by open field test (reference value: 155 +/- 34); format: ADME, organism-based; conditions: in vivo, 0.2 mg/kg, 0.75 h
Mus musculus [14] = experiment: Sedative activity in sc dosed Kunming mouse assessed as […] after 20 mins by rotation test; format: ADME, organism-based; conditions: in vivo
Mus musculus [15] = experiment: Sedative activity in sc dosed Kunming mouse assessed as crossing number at 100 ug/kg after 45 mins by open field test (reference value: 155 +/- 34); format: ADME, organism-based; conditions: in vivo, 0.1 mg/kg, 0.75 h
Mus musculus [16] = experiment: Sedative activity in sc dosed Kunming mouse assessed as center square duration time at 50 ug/kg after 45 mins by open field test (reference value: 13.2 +/- 3.1 secs); format: ADME, organism-based; conditions: in vivo, 0.05 mg/kg, 0.75 h
Mus musculus [17] = experiment: Peripheral restriction index, ratio of sedative ED50 in sc dosed Kunming mouse to antinociceptive ED50 in ip dosed mouse
Mus musculus [18] = experiment: Antinociceptive activity in ip dosed mouse assessed as acetic acid induced writhing administered 30 mins prior to acetic acid challenge measured for 20 mins; format: functional
[19] = Selectivity ratio of Ki for rat mu opioid receptor to Ki for human kappa opioid receptor
Mus musculus [20] = experiment: Sedative activity in sc dosed Kunming mouse assessed as crossing number at 25 ug/kg after 45 mins by open field test (reference value: 155 +/- 34); format: ADME, organism-based; conditions: in vivo, 0.025 mg/kg, 0.75 h
Mus musculus [21] = experiment: Sedative activity in sc dosed Kunming mouse assessed as center square duration time at 25 ug/kg after 45 mins by open field test (reference value: 13.2 +/- 3.1 secs); format: ADME, organism-based; conditions: in vivo, 0.025 mg/kg, 0.75 h
Mus musculus [22] = experiment: Sedative activity in sc dosed Kunming mouse assessed as center square duration distance at 25 ug/kg after 45 mins by open field test (reference value: 1.77 +/- 0.81 m); format: ADME, organism-based; conditions: in vivo, 0.025 mg/kg, 0.75 h

| inhibition [1] | inhibition [2] | inhibition [3] | inhibition [4] | SMILES | pKi [5] | further results |
| --- | --- | --- | --- | --- | --- | --- |
| 0% | 10.4% | 31.9% | 12.1% | O=C1CC(C(=O)N2CCc3ccccc3C2C[N+]2(Cc3ccc(Cl)cc3Cl)CCCC2)c2cc(Cl)ccc21 (stereo not drawn) | – | – |
| 0% | 0% | 8.6% | 0% | COc1ccc2c(c1)C(C[N+]1(C)CCCC1)N(C(=O)C1CC(=O)c3ccc(Cl)cc31)CC2 (stereo not drawn) | – | – |
| 4% | 9.8% | 85.5% | 50% | COc1ccc2c(c1)CCN(C(=O)C1CC(=O)c3ccc(Cl)cc31)C2C[N+]1(C)CCCC1 (stereo not drawn) | – | – |
| 0% | 9.8% | 83% | 3.9% | COc1ccc(C[N+]2(CC3c4ccccc4CCN3C(=O)C3CC(=O)c4ccc(Cl)cc43)CCCC2)cc1 (stereo not drawn) | – | – |
| 8.9% | 26.5% | 97.4% | 86% | C[N+]1(CC2c3cc(F)ccc3CCN2C(=O)C2CC(=O)c3ccc(Cl)cc32)CCCC1 (stereo not drawn) | 6.86 | – |
| 0% | 0% | 83.7% | 10.8% | C[N+]1(CC2c3ccccc3CCN2C(=O)C2CC(=O)c3ccc(Cl)cc32)CCCC1 (stereo not drawn) | < 5.00 | – |
| 0% | 0% | 86% | 43.1% | O=C1CC(C(=O)N2CCc3ccccc3C2C[N+]2(Cc3ccccc3)CCCC2)c2cc(Cl)ccc21 (stereo not drawn) | – | – |
| 0% | 0% | 13.1% | 0% | O=C1CC(C(=O)N2CCc3ccccc3C2C[N+]2(Cc3ccc(F)cc3)CCCC2)c2cc(Cl)ccc21 (stereo not drawn) | – | – |
| 0% | 10% | 89.3% | 31.3% | O=C1CC(C(=O)N2CCc3ccccc3C2C[N+]2(Cc3ccc(Cl)cc3)CCCC2)c2cc(Cl)ccc21 (stereo not drawn) | – | – |
| – | – | – | – | O=C1CC(C(=O)N2CCc3ccccc3C2CN2CCCC2)c2cc(Cl)ccc21 (stereo not drawn) | 10.48 | Ratio Ki [19]: 21.1; Activity (Mus musculus [20]): 71; Time (Mus musculus [21]): 27.1 s; Activity (Mus musculus [22]): 1.21 m; ED50 (Mus musculus [14]): 0.000568 mg/kg; Ratio ED50 (Mus musculus [17]): 1.4; ED50 (Mus musculus [18]): 0.000406 mg/kg |
| 0% | 0% | 89.1% | 31.9% | CC[N+]1(CC2c3ccccc3CCN2C(=O)C2CC(=O)c3ccc(Cl)cc32)CCCC1 (stereo not drawn) | – | – |

| SMILES | inhibition [1] | inhibition [2] | inhibition [3] | inhibition [4] | pKi [5] | further results |
| --- | --- | --- | --- | --- | --- | --- |
| O=C1CC(C(=O)N2CCc3ccccc3C2C[N+]2(CC3CC3)CCCC2)c2cc(Cl)ccc21 (stereo not drawn) | 29.2% | 48% | 100% | 98.8% | 8.45 | – |
| C[N+]1(CC2c3ccc(O)cc3CCN2C(=O)C2CC(=O)c3ccc(Cl)cc32)CCCC1 (stereo not drawn) | 8.2% | 34.5% | 87.7% | 67.3% | 6.64 | – |
| CCCC[N+]1(CC2c3ccccc3CCN2C(=O)C2CC(=O)c3ccc(Cl)cc32)CCCC1.[I-] (stereo not drawn) | 28.8% | 62.4% | 100% | 100% | 9.03 | Time (Mus musculus [6]): 19.1 s; Time (Mus musculus [7]): 27.4 s; Ratio ED50 (Mus musculus [8]): 40; Activity (Mus musculus [9]): 153; Activity (Mus musculus [10]): 1.93 m; Activity (Mus musculus [11]): 1.02 m; Activity (Mus musculus [12]): 1.92 m; Activity (Mus musculus [13]): 91; ED50 (Mus musculus [14]): 0.24 mg/kg; Activity (Mus musculus [15]): 138; Time (Mus musculus [16]): 17.4 s; Ratio ED50 (Mus musculus [17]): 10.2; ED50 (Mus musculus [18]): 0.022 mg/kg |
| C=CC[N+]1(CC2c3ccccc3CCN2C(=O)C2CC(=O)c3ccc(Cl)cc32)CCCC1 (stereo not drawn) | 37.4% | 56.5% | 100% | 100% | 8.73 | – |
